Key:
[1] = system: BMDCs; test: Multiplex qPCR of transcripts in stimulated BMDCs; format: cell-based, mouse; conditions: 2 days pre-treatment, 4 hr LPS, R848 or zymosan
Method: Bone marrow-derived DCs were differentiated from C57BL/6 bone marrow in the presence of GM-CSF-conditioned media. CD11c^+ CX3CR1^hi myeloid cells and CD11c^+ CX3CR1^− DCs were isolated from the small intestine lamina propria of Cx3cr1^eGFP/+ mice (12). Detection of cell-surface Thy1.1 expression on BMDCs from 10BiT reporter mice was conducted as described previously (24). Cell viability was estimated by change in total cellular ATP levels using CellTiterGlo assays (Promega). Preparation of recombinant SIK proteins and IC50 measurements were conducted as described previously (21). Total RNA was extracted using a NucleoSpin 96 RNA isolation kit (Macherey-Nagel) followed by cDNA synthesis and multiplex RT-PCR using a microfluidic dynamic array (Fluidigm). The concentrations of TNF-α, IL-6, IL-10, IL-12p40, IL-1β and RANTES in culture supernatants were detected using a FlexSet Cytometric bead array (BD Biosciences). Alternatively, IL-10 secretion was quantified using ELISA (BD Biosciences) or AlphaLISA (PerkinElmer) assays. NO production was estimated based on nitrate content in culture medium using the Greiss reagent.
C57BL/6 mice were euthanized and bone marrow harvested from femurs and tibias as described previously (Graham D B, et al. (2007) An ITAM-signaling pathway controls cross-presentation of particulate but not soluble antigens in dendritic cells. The Journal of experimental medicine 204(12):2889-2897). BMDCs were differentiated DMEM supplemented with 2 mM GlutaMAX, 10% (vol/vol) FBS, penicillin, streptomycin and 2% mouse GM-CSF conditioned media derived from TOPO cells. Cultures were differentiated for 7 days and routinely analyzed for >90% CD11c (APC anti-CD11c clone HL3; BD Biosciences) positivity by flow cytometry before use in experiments. Lentiviral transduction of bone marrow cultures was conducted by addition of 293T culture supernatants containing lentiviral particles encoding the CREB dependent luciferase reporter construct or CRTC3 targeting or control shRNAs one day post-isolation. Stable integration of lentiviral shRNA constructs was selected by addition of puromycin (3 μg/mL) on day 4 post-transduction. After 2 days, stably transduced BMDCs were released from selection and used in subsequent assays. […]
Total RNA was extracted using a NucleoSpin 96 RNA isolation kit (Macherey-Nagel). […] Relative gene expression was calculated from Ct values and normalized against ACTB mRNA levels as described previously (Pfaffl MW (2001) A new mathematical model for relative quantification in real-time RT-PCR. Nucleic acids research 29(9):e45). […]

[2] = system: naïve splenic CD4+ T cells differentiated to Treg or Tr1; test: Treg and Tr1 T cell differentiation, viability, FoxP3 staining and IL-10 ELISA; format: cell-based, mouse
Method: Balb/c mice were euthanized and splenic CD4+CD62L+ T cells were magnetically enriched (Miltenyi Biotec) to >95% purity and cultured in DMEM media on plates pre-coated with anti-CD3 and anti-CD28 antibodies (clones 145-2C11 and 37.51; BioXCell). Culture media was supplemented with 10 μg/mL anti-IL-4 (clone 11B11; BioXCell), anti-IL-12 (clone C17.8; BioXCell), and anti-IFNγ (clone XMG1.2; BioXCell) as well as TGFβ (2 ng/mL; PeproTech). HG-9-91-01 (100 nM) or DMSO were added at day 0. Cultures were fed with DMEM+IL-2 (10 ng/mL, Peprotech) containing small molecules at day 2 and analyzed at day 4. Cells were stained with blue LIVE/DEADAqua stain (Invitrogen) to discriminate live cells, fixed with Foxp3 Permeabilization Buffer (eBioscience), stained with FITC anti-CD4 (clone RM4-5, Biolegend) and PE anti-Foxp3 (clone FJK-16S, eBioscience) and acquired on a FACSVerse (BD Biosciences). For Th0 and Tr1 differentiations, C57BL/6 mice were euthanized and splenic CD4+CD62L+ T cells were magnetically enriched (Miltenyi Biotec) to >95% purity and cultured in DMEM media on plates pre-coated with anti-CD3 and anti-CD28 antibodies (clones 145-2C11 and 37.51; BioXCell) in the absence of neutralizing antibodies. For Tr1 differentiations, the culture media was supplement with TGFβ (2 ng/mL; PeproTech) and rIL-27 (25 ng/mL; R&D Systems) as described previously (Gagliani N, et al. (2013) Coexpression of CD49b and LAG-3 identifies human and mouse T regulatory type 1 cells. Nature medicine 19(6):739-746). After 4 days, cells were harvested, washed in PBS and stained with LIVE/DEADGreen to discriminate viable cells and eFluor450 anti-CD4 (BioLegend) and acquired on a FACSVerse (BD Biosciences). Absolute cell numbers were enumerated by adding 5000 […] beads (Spherotech) to each well. Analysis was performed using Flowjo (Treestar) excluding samples were significant toxicity was observed. For all differentiation conditions, IL-10 levels were quantified in the culture media at day 4 by ELISA (BD Biosciences).

[3] = target: Src (Homo sapiens, UniProt P12931); conditions: cited from earlier work
Src, sequence (P12931 whole entry, species assumed): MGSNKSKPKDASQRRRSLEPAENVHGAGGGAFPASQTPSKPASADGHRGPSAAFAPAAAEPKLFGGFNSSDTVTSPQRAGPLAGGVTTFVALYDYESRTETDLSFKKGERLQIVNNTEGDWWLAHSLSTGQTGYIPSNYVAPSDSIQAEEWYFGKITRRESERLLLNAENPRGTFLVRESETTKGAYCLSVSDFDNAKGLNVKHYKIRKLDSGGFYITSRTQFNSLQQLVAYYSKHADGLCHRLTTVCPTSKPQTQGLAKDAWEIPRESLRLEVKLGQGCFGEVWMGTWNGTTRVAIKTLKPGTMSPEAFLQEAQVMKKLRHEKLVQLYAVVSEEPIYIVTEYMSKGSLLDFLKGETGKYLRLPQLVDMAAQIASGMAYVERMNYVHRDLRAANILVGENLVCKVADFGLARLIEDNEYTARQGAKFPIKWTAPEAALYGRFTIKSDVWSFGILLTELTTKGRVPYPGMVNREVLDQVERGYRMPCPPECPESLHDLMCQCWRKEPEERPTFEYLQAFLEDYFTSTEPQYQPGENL

[4] = system: SGK; test: Protein kinase assay against SGK (selectivity); format: biochemical; conditions: DMSO set to 100%

COc1ccc(N(C(=O)Nc2c(C)cccc2C)c2cc(Nc3ccc(N4CCN(C)CC4)cc3)ncn2)c(OC)c1 [HG-9-91-01]
IL-10 mRNA levels [1]: robustly enhanced
abundance of Arg1 and Nos2 transcripts [1]: significantly blunted
fraction of Foxp3+ cells and IL-10 secretion of Treg's ([2]; 100 nM, 4 days): did not increase the fraction of Foxp3^+ cells or promote IL-10 secretion
concentrations toxic in Treg's and Tr1 cells ([2]; 4 days differentiation): greater than 0.5 μM
IL-10 secretion by Tr1 cells ([2]; non-toxic concentrations, 4 days): not further enhanced
Src activity remaining [3]: less than 4%

Cc1cccc(C)c1NC(=O)N1C/C=C\COc2cccc(c2)Nc2cc1ncn2 [I-1]
Activity of protein kinase treated with 0.1 μM of I-1 (% control (DMSO)) SGK ([4]; 0.1 μM): 96 % control (DMSO)
Activity of protein kinase treated with 1 μM of I-1 (% control (DMSO)) SGK ([4]; 1 μM): 100 % control (DMSO)

Source: patent US10265321B2, “Uses of salt-inducible kinase (SIK) inhibitors” (Dana-Farber Cancer Institute, Inc., priority 2014, dated 2019)
